Experimental data taken from patent US20240058422A1, “GLUCAGON-LIKE PEPTIDE-1 RECEPTOR ANTAGONISTS” (INDIANA UNIVERSITY RESEARCH AND TECHNOLOGY CORPORATION, priority 2022, published 2024).
Values after ≈ are worked out from the molar mass of the structure shown. Where two headings read alike, the source gives them in different places. Starred links: 1 amine or outer side, 2 acyl side, 3 side chain; linkers in the order of their positions; H or OH if unused. Non-standard residues stand in square brackets, D forms with d. Residues, ends and D or L forms follow the SMILES beside them. Groups on a side chain read outwards from the residue. *: point of attachment. γGlu = O=C(O)[C@H](CCC(=O)[*:2])N[*:1]; Palmitoyl = CCCCCCCCCCCCCCCC(=O)*; AEEA = NCCOCCOCC(=O)O; Aib = CC(C)(N)C(=O)O

Assays:
GLP-1R = GLP-1R (Homo sapiens, UniProt P43220); experiment: GLP-1 receptor-mediated cAMP induction, luciferase reporter gene antagonism assay; type: cell-based; parameters: host or cells: HEK 293; settings: antagonism of 0.05 nM GLP-1, HEK 293 cells
Chain of GLP-1R (P43220 24-463): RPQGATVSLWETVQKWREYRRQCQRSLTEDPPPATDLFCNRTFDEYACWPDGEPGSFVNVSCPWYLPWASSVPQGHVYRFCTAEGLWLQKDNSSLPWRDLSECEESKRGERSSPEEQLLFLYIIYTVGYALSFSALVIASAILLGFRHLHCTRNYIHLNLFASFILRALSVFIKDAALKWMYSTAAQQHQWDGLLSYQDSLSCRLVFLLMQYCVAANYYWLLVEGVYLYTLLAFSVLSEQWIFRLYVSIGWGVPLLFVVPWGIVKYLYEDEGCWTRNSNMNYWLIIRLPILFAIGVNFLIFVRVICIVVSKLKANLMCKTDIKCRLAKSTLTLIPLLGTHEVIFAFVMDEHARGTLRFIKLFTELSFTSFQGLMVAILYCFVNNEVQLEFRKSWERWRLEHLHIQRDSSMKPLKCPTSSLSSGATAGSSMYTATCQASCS
Procedure, shortened: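 HEK 293 cells cotransfected with human GLP-1 receptor and CRE-luciferase were serum-deprived 16 h, then given serial peptide dilutions followed by 0.05 nM GLP-1 and incubated 5 h at 37° C.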

[1] = pH 7.7, Solubility [mg/mL] 80 mM AmBicarb pH7.7
[2] = Table 3, amino acid substitution variants of Jant4-K40, read-out: Bioactivity IC50
[3] = pH 7.7, Solubility 80 mM AmeBicarb pH7.7
[4] = Table 2, C16 linker variants of 9-40amide Jant4 K40[X], read-out: Biactivity IC50

Compound	solubility (physchem; [1]) [µg/mL]	IC50 (GLP-1R; [2]) [nM]	solubility (physchem; [3]) [µg/mL]	other results
CCCCCCCCCCCCCCCC(=O)NCCCC[C@H](NC(=O)[C@H](CO)NC(=O)[C@@H]1CCCN1C(=O)[C@@H]1CCCN1C(=O)[C@@H]1CCCN1C(=O)[C@H](C)NC(=O)CNC(=O)[C@H](CO)NC(=O)[C@H](CO)NC(=O)[C@@H]1CCCN1C(=O)CNC(=O)CNC(=O)[C@H](CCCCN)NC(=O)[C@@H](NC(=O)C(C)(C)NC(=O)[C@H](Cc1c[nH]c2ccccc12)NC(=O)[C@H](C)NC(=O)[C@@H](NC(=O)[C@H](Cc1ccccc1)NC(=O)[C@H](CCC(=O)O)NC(=O)[C@H](CCCNC(=N)N)NC(=O)[C@@H](NC(=O)[C@H](C)NC(=O)[C@H](CCC(N)=O)NC(=O)[C@H](CCC(=O)O)NC(=O)[C@H](CCC(=O)O)NC(=O)[C@H](CC(C)C)NC(=O)[C@H](Cc1ccc(O)cc1)NC(=O)[C@H](CO)NC(=O)[C@H](CO)NC(=O)[C@@H](NC(=O)[C@@H](N)CC(=O)O)C(C)C)C(C)C)[C@@H](C)CC)C(C)C)C(N)=O [compound 44] (H-DVSSYLEEQAVREFIAW[Aib]VKGGPSSGAPPPSK(Palmitoyl)-NH2)	19000 (≈ 5260 µM)	–	–	IC50 (GLP-1R; Table 4, Aib variants of 9-40am Jant4 K40[C16], read-out: Bioactivity IC50): 8 nM; solubility (Solubility in buffer; PBS, pH 7.7, Solubility [mg/mL] PBS pH7.7, Table 4, PBS pH7.7): 100 µg/mL (≈ 27.7 µM)
CCCCCCCCCCCCCCCC(=O)NCCCC[C@H](NC(=O)[C@H](CO)NC(=O)[C@@H]1CCCN1C(=O)[C@@H]1CCCN1C(=O)[C@@H]1CCCN1C(=O)[C@H](C)NC(=O)CNC(=O)[C@H](CO)NC(=O)[C@H](CO)NC(=O)[C@@H]1CCCN1C(=O)CNC(=O)CNC(=O)[C@H](CCCCN)NC(=O)[C@@H](NC(=O)[C@H](CC(C)C)NC(=O)[C@H](Cc1c[nH]c2ccccc12)NC(=O)[C@H](C)NC(=O)[C@@H](NC(=O)[C@H](Cc1ccccc1)NC(=O)[C@H](CCC(=O)O)NC(=O)[C@H](CCCNC(=N)N)NC(=O)[C@@H](NC(=O)[C@H](C)NC(=O)[C@H](CCC(N)=O)NC(=O)[C@H](CCC(=O)O)NC(=O)[C@H](CCC(=O)O)NC(=O)[C@H](CC(C)C)NC(=O)[C@H](Cc1ccc(O)cc1)NC(=O)[C@H](CO)NC(=O)[C@H](CO)NC(=O)[C@@H](NC(=O)[C@@H](N)CC(=O)O)C(C)C)C(C)C)[C@@H](C)CC)C(C)C)C(N)=O [compound 47] (H-DVSSYLEEQAVREFIAWLVKGGPSSGAPPPSK(Palmitoyl)-NH2; N-terminus assumed)	6100 (≈ 1680 µM)	–	–	solubility (Solubility in buffer; 80 mM ammonium bicarbonate buffer, pH 7.7, Solubility 80 mM AmeBicarb pH7.7, Table 3, 80 mM AmeBicarb pH7.7): 6100 µg/mL (≈ 1680 µM)
CCCCCCCCCCCCCCCC(=O)NCCCC[C@H](NC(=O)[C@H](CO)NC(=O)[C@@H]1CCCN1C(=O)[C@@H]1CCCN1C(=O)[C@@H]1CCCN1C(=O)[C@H](C)NC(=O)CNC(=O)[C@H](CO)NC(=O)[C@H](CO)NC(=O)[C@@H]1CCCN1C(=O)CNC(=O)CNC(=O)[C@H](CCCNC(=N)N)NC(=O)[C@@H](NC(=O)[C@H](CC(C)C)NC(=O)[C@H](Cc1c[nH]c2ccccc12)NC(=O)[C@H](CCC(=O)O)NC(=O)[C@@H](NC(=O)[C@H](Cc1ccccc1)NC(=O)[C@H](CCC(=O)O)NC(=O)[C@H](CCCNC(=N)N)NC(=O)[C@@H](NC(=O)[C@H](C)NC(=O)[C@H](CCC(N)=O)NC(=O)[C@H](CCC(=O)O)NC(=O)[C@H](CCC(=O)O)NC(=O)[C@H](CC(C)C)NC(=O)[C@H](Cc1ccc(O)cc1)NC(=O)[C@H](CCCNC(=N)N)NC(=O)[C@H](CO)NC(=O)[C@@H](NC(=O)[C@@H](N)CC(=O)O)C(C)C)C(C)C)[C@@H](C)CC)C(C)C)C(N)=O [compound 74] (H-DVSRYLEEQAVREFIEWLVRGGPSSGAPPPSK(Palmitoyl)-NH2; N-terminus assumed)	–	15	> 20000	–
CCCCCCCCCCCCCCCC(=O)N[C@@H](CCC(=O)NCCOCCOCC(=O)NCCOCCOCC(=O)NCCCC[C@H](NC(=O)[C@H](CO)NC(=O)[C@@H]1CCCN1C(=O)[C@@H]1CCCN1C(=O)[C@@H]1CCCN1C(=O)[C@H](C)NC(=O)CNC(=O)[C@H](CO)NC(=O)[C@H](CO)NC(=O)[C@@H]1CCCN1C(=O)CNC(=O)CNC(=O)[C@H](CCCCN)NC(=O)[C@@H](NC(=O)[C@H](CC(C)C)NC(=O)[C@H](Cc1c[nH]c2ccccc12)NC(=O)[C@H](C)NC(=O)[C@@H](NC(=O)[C@H](Cc1ccccc1)NC(=O)[C@H](CCC(=O)O)NC(=O)[C@H](CCCNC(=N)N)NC(=O)[C@@H](NC(=O)[C@H](C)NC(=O)[C@H](CCC(N)=O)NC(=O)[C@H](CCC(=O)O)NC(=O)[C@H](CCC(=O)O)NC(=O)[C@H](CC(C)C)NC(=O)[C@H](Cc1ccc(O)cc1)NC(=O)[C@H](CO)NC(=O)[C@H](CO)NC(=O)[C@@H](NC(=O)[C@@H](N)CC(=O)O)C(C)C)C(C)C)[C@@H](C)CC)C(C)C)C(N)=O)C(=O)O [compound 48] (H-DVSSYLEEQAVREFIAWLVKGGPSSGAPPPSK([AEEA-AEEA-γGlu-Palmitoyl])-NH2; N-terminus assumed)	9000 (≈ 2220 µM)	–	–	IC50 (GLP-1R; [4]): 9 nM
CCCCCCCCCCCCCCCC(=O)N[C@@H](CCC(=O)NCCOCCOCC(=O)NCCCC[C@H](NC(=O)[C@H](CO)NC(=O)[C@@H]1CCCN1C(=O)[C@@H]1CCCN1C(=O)[C@@H]1CCCN1C(=O)[C@H](C)NC(=O)CNC(=O)[C@H](CO)NC(=O)[C@H](CO)NC(=O)[C@@H]1CCCN1C(=O)CNC(=O)CNC(=O)[C@H](CCCNC(=N)N)NC(=O)[C@@H](NC(=O)[C@H](CC(C)C)NC(=O)[C@H](Cc1c[nH]c2ccccc12)NC(=O)[C@H](CCC(=O)O)NC(=O)[C@@H](NC(=O)[C@H](Cc1ccccc1)NC(=O)[C@H](CCC(=O)O)NC(=O)[C@H](CCCNC(=N)N)NC(=O)[C@@H](NC(=O)[C@H](C)NC(=O)[C@H](CCC(N)=O)NC(=O)[C@H](CCC(=O)O)NC(=O)[C@H](CCC(=O)O)NC(=O)[C@H](CC(C)C)NC(=O)[C@H](Cc1ccc(O)cc1)NC(=O)[C@H](CO)NC(=O)[C@H](CO)NC(=O)[C@@H](NC(=O)[C@@H](N)CC(=O)O)C(C)C)C(C)C)[C@@H](C)CC)C(C)C)C(=O)O)C(=O)O [compound 78] (H-DVSSYLEEQAVREFIEWLVRGGPSSGAPPPSK([AEEA-γGlu-Palmitoyl])-OH; N-terminus assumed)	–	19	> 20000	–
H-DVSSYLEEQAVREFIAWLVKGGPSSGAPPPSK-NH2 [compound 95]	12700	–	–	IC50 (GLP-1R; [4]): 281 nM
CCCCCCCCCCCCCCCC(=O)N[C@@H](CCC(=O)NCCOCCOCC(=O)NCCCC[C@H](NC(=O)[C@H](CO)NC(=O)[C@@H]1CCCN1C(=O)[C@@H]1CCCN1C(=O)[C@@H]1CCCN1C(=O)[C@H](C)NC(=O)CNC(=O)[C@H](CO)NC(=O)[C@H](CO)NC(=O)[C@@H]1CCCN1C(=O)CNC(=O)CNC(=O)C(C)(C)NC(=O)[C@H](CCCNC(=N)N)NC(=O)[C@H](CC(C)C)NC(=O)[C@H](Cc1c[nH]c2ccccc12)NC(=O)[C@H](CCC(=O)O)NC(=O)[C@@H](NC(=O)[C@H](Cc1ccccc1)NC(=O)[C@H](CCC(=O)O)NC(=O)[C@H](CCCNC(=N)N)NC(=O)[C@@H](NC(=O)[C@H](C)NC(=O)[C@H](CCC(N)=O)NC(=O)[C@H](CCC(=O)O)NC(=O)[C@H](CCC(=O)O)NC(=O)[C@H](CC(C)C)NC(=O)[C@H](Cc1ccc(O)cc1)NC(=O)[C@H](CO)NC(=O)[C@H](CO)NC(=O)[C@@H](NC(=O)[C@@H](N)CC(=O)O)C(C)C)C(C)C)[C@@H](C)CC)C(=O)O)C(=O)O [compound 80] (H-DVSSYLEEQAVREFIEWLR[Aib]GGPSSGAPPPSK([AEEA-γGlu-Palmitoyl])-OH; N-terminus assumed)	–	106	> 20000	–
